Experimental data published in the supplement of paper PMC10307832.

Experiments:
Assay in all cases: relative viability (nuclei count vs DMSO), 5 days (fraction); higher = more cells survive
Idelalisib + Trametinib = compound: CC[C@H](Nc1ncnc2[nH]cnc12)c1nc2cccc(F)c2c(=O)n1-c1ccccc1 [Idelalisib] + CC(=O)Nc1cccc(-n2c(=O)n(C3CC3)c(=O)c3c(Nc4ccc(I)cc4F)n(C)c(=O)c(C)c32)c1 [Trametinib] (partner 0.02 µM)
How it was run: (§1)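 Medians of duplicate plates are given as relative viability. That measure is the nuclei count in treated wells divided by the count in vehicle wells. Counts were taken on 4× images of lung cancer cell lines in 1536-well plates, 5 days after pin-tool dosing the day after seeding with one drug alone or a fixed anchor-drug dose plus five library-drug doses (not always all listed) in √10 steps.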

Idelalisib + Pemetrexed = compound: CC[C@H](Nc1ncnc2[nH]cnc12)c1nc2cccc(F)c2c(=O)n1-c1ccccc1 [Idelalisib] + Nc1nc2[nH]cc(CCc3ccc(C(=O)N[C@@H](CCC(=O)O)C(=O)O)cc3)c2c(=O)[nH]1 [Pemetrexed] (partner 0.2 µM)
How it was run: as §1

Idelalisib + Decitabine = compound: CC[C@H](Nc1ncnc2[nH]cnc12)c1nc2cccc(F)c2c(=O)n1-c1ccccc1 [Idelalisib] + Nc1ncn([C@H]2C[C@H](O)[C@@H](CO)O2)c(=O)n1 [Decitabine] (partner 2 µM)
How it was run: as §1

Idelalisib + Alpelisib = compound: CC[C@H](Nc1ncnc2[nH]cnc12)c1nc2cccc(F)c2c(=O)n1-c1ccccc1 [Idelalisib] + Cc1nc(NC(=O)N2CCC[C@H]2C(N)=O)sc1-c1ccnc(C(C)(C)C(F)(F)F)c1 [Alpelisib] (partner 2 µM)
How it was run: as §1

| Cell Line | relative viability (Idelalisib + Trametinib; first compound 0.04 µM) | relative viability (Idelalisib + Trametinib; first compound 0.1265 µM) | relative viability (Idelalisib + Trametinib; first compound 0.4 µM) | relative viability (Idelalisib + Trametinib; first compound 1.265 µM) | relative viability (Idelalisib + Trametinib; first compound 4 µM) | relative viability (Idelalisib + Pemetrexed; first compound 0.04 µM) | relative viability (Idelalisib + Pemetrexed; first compound 0.1265 µM) | relative viability (Idelalisib + Pemetrexed; first compound 0.4 µM) | relative viability (Idelalisib + Pemetrexed; first compound 1.265 µM) | relative viability (Idelalisib + Pemetrexed; first compound 4 µM) | relative viability (Idelalisib + Decitabine; first compound 0.04 µM) | relative viability (Idelalisib + Decitabine; first compound 0.1265 µM) | relative viability (Idelalisib + Decitabine; first compound 0.4 µM) | relative viability (Idelalisib + Decitabine; first compound 1.265 µM) | relative viability (Idelalisib + Decitabine; first compound 4 µM) | relative viability (Idelalisib + Alpelisib; first compound 0.04 µM) | relative viability (Idelalisib + Alpelisib; first compound 0.1265 µM) | relative viability (Idelalisib + Alpelisib; first compound 0.4 µM) | relative viability (Idelalisib + Alpelisib; first compound 1.265 µM) | relative viability (Idelalisib + Alpelisib; first compound 4 µM) |
| --- | --- | --- | --- | --- | --- | --- | --- | --- | --- | --- | --- | --- | --- | --- | --- | --- | --- | --- | --- | --- |
| HCC-15 | 0.379 | 0.29 | 0.315 | 0.356 | 0.332 | 0.242 | 0.22 | 0.213 | 0.22 | 0.221 | 0.687 | 0.692 | 0.547 | 0.82 | 0.622 | 1.07 | 0.884 | 0.794 | 0.912 | 0.83 |
| HCC-44 | 1.07 | 1.04 | 1.08 | 1.06 | 0.941 | 0.684 | 0.664 | 0.652 | 0.586 | 0.687 | 1.07 | 0.927 | 0.978 | 0.98 | 0.91 | 0.831 | 0.812 | 0.602 | 0.577 | 0.638 |
| HCC-78 | 0.68 | 0.702 | 0.711 | 0.704 | 0.542 | 0.664 | 0.956 | 0.87 | 0.86 | 0.935 | 0.738 | 0.731 | 0.667 | 0.647 | 0.665 | 0.269 | 0.291 | 0.246 | 0.287 | 0.207 |
| HCC-366 | 0.362 | 0.464 | 0.274 | 0.354 | 0.233 | 0.178 | 0.163 | 0.214 | 0.138 | 0.21 | 0.348 | 0.395 | 0.309 | 0.372 | 0.299 | 0.429 | 0.4 | 0.28 | 0.245 | 0.183 |
| HCC-827 | 0.578 | 0.517 | 0.473 | 0.476 | 0.424 | 0.267 | 0.218 | 0.232 | 0.249 | 0.25 | 0.379 | 0.246 | 0.347 | 0.331 | 0.286 | 0.977 | 0.968 | 0.92 | 0.894 | 0.506 |
| HOP-62 | 0.345 | 0.354 | 0.292 | 0.362 | 0.247 | 0.353 | 0.331 | 0.284 | 0.278 | 0.248 | 0.277 | 0.199 | 0.262 | 0.231 | 0.235 | 1.19 | 1.09 |  | 0.853 | 1.06 |
| IA-LM |  |  |  |  |  |  |  |  |  |  |  |  |  |  |  | 0.787 | 0.754 | 0.884 | 0.72 | 0.84 |
| LC-2-ad | 0.963 | 0.957 | 0.931 | 1.02 | 0.806 | 0.282 | 0.276 | 0.25 | 0.267 | 0.26 | 0.789 | 0.797 | 0.811 | 0.825 | 0.711 | 0.887 | 0.683 | 0.959 | 0.893 | 0.637 |
